# Assay results reported in US7767817B2, “Water soluble boronic acid fluorescent reporter compounds and methods of use thereof” (priority 2003, dated 2010).
# Where two headings read alike, the source gives them in different places.
# How the values were obtained:
# [1] = Fluorescence binding study with fructose
# Experimental: (§1) For a typical sugar-BTBA fluorescent measurement, a 1.0×10^−5 M stock solution of BTBA in 0.10 M phosphate buffer at pH 7.4 was made as solution A. […] Solution B was titrated into solution A in order to make mixtures with a constant concentration of BTBA and a range of concentrations of the sugar. Each mixture was allowed to stand for at least 10 min, then 3.0 mL of the mixture was transferred into a cuvette for fluorescence measurement.
# (§2) The association constants (Ka) were determined according to the method III in Valeur's publication (J. Phys. Chem. 1988, 92, 6233).
# [2] = Stability noted at isolation; assay type: physicochemical; conditions: after TFA deprotection, no further purification
# Experimental: (7). To a solution of 6 (0.2501 g, 0.79 mmol) in DCM (20 mL) was added TFA (5 mL). The solution was stirred for 1 h, and then concentrated in vacuum to give a yellow oil.
# [3] = Fluorescence quantum yield; assay type: physicochemical
# Experimental: The effect of various carbohydrates on the fluorescent properties of compound 1 was determined in phosphate buffer at pH 7.4. The emission spectral change of 1 with fructose at different concentrations in 0.1 M aqueous phosphate buffer (pH 7.4) is shown in FIG. 4. A 41-fold emission intensity increase is observed in presence of 50 mM fructose. To the best of our knowledge, such a large emission intensity increase has never been reported for boronic acid-based saccharide sensors involving the ICT mechanism. The quantum yields of 1 in the absence (φF=0.010) and in the presence of 50 mM fructose (φF=0.42) in 0.1 M phosphate buffer (pH 7.4) were obtained using 8-quinoline boronic acid (φF=0.58 in 12 M H2SO4) as a reference compound.
# For example, addition of fructose (50 mM) to the solution of 7 induced a 36-fold fluorescence intensity increase at 433 nm and a 0.55-fold fluorescence intensity decrease at 513 nm (FIG. 14). […] To the best of our knowledge, such large emission intensity changes at two wavelengths have never been reported for boronic acid-based saccharide sensors. The quantum yields (φF) of 7 were determined as 0.07 at 513 nm in 0.1 M phosphate buffer (pH 7.4) in the absence of a sugar and 0.23 at 433 nm in the presence of 50 mM of fructose, using 8-quinoline boronic acid (φF=0.58 in 12 M H2SO4) as a reference compound.
# [4] = Fluorescence binding study with sorbitol
# Experimental: as §1, §2
# [5] = Fluorescence binding study with galactose
# Experimental: as §1, §2
# [6] = Fluorescence binding study with glucose
# Experimental: as §1, §2
# [7] = Fluorescence binding study with tagatose
# Experimental: as §1, §2
# [8] = Fluorescence intensity pH profile (apparent pKa); assay type: physicochemical
# Text: Since the fluorescence intensity increase upon binding with a sugar seems to be a general phenomenon, the fluorescence change mechanism of compound 5 at pH 7.4 was investigated. For this purpose, the fluorescence pH profiles of both compound 5 alone and compound 5 in the presence of fructose (0.5 M) were studied. The fluorescence intensity of 5 at 334 nm in the absence of sugars decreased upon changing the pH from 3 to 12 (FIG. 3). An apparent pKa of 7.0 was observed, which is assigned to the boronic acid moiety. […] It is well-known that the binding of a diol to boronic acid often lowers the pKa of the boron species) (Springsteen, G.; Wang, B. Tetrahedron 2002, 58, 5291-5300). Therefore, the pKa, which drops from 7.0 to 4.0, can also be reasonably assigned to boron. […] It seems that the fluorescence intensity change of compound 5 is also due to diol's perturbation as that of 8-quinolineboronic acid.
# To examine the relationship between the fluorescence intensity changes and the boron ionization states, the pH profile of the fluorescence intensity in the absence and presence of fructose and glucose at a fixed concentration (50 mM) was also studied (FIG. 6). […] It is worth mentioning that the pKa of the protonated dimethyl amino group of 1 is […] the emission wavelength of 1 with the protonated dimethyl amino group at low pH is about 238 nm. Therefore, the fluorescence intensity of 1 at 445 nm was not affected by the protonated dimethyl amino group. The fluorescence intensity changes correspond to the boronic acid pKa (9.4) and therefore hybridization changes, which was responsible for the fluorescence intensity changes observed.
# Since the fluorescence intensity increase upon binding with a sugar seems to be a general phenomenon, next the conditions under which optimal fluorescence intensity changes are observed upon addition of a sugar was investigated. For this purpose, the fluorescence pH profiles of both compound 6 alone and in the presence of fructose (0.5 M) were studied. The fluorescence intensity of 6 in the absence of sugars increased by 17-fold upon changing the pH from 3 to 12 (FIG. 10). […] Furthermore, one would expect the pKa values of the other two ionizable groups, the carboxylic acid and the quinolinium groups, to be less than 7. Therefore, assigning the pKa at 7.9 to the boronic acid moiety is the most reasonable option. […] It is well-known that the binding of a diol to boronic acid often lowers the pKa of the boron species. […] Upon addition of fructose, the pKa of the boron drops to about 5.2, which ensures that most of the boron species are in the anionic tetrahedral state at physiological pH.
# Since the fluorescence intensity increase upon binding with a sugar seems to be a general phenomenon, the use of 5-QBA functions as a fluorescent probe for diols was investigated. The fluorescence pH profiles of both 5-QBA alone and 5-QBA in the presence of D-fructose (0.5 M) were investigated. […] In order to assign each pKa, the ^11B NMR spectra of 5-QBA and its ester in a mixed deuterated methanol-water (1:1) solvent at different pH were obtained. Methanol was used so that the concentration of 5-QBA can be increased to 57 mM so as to allow for a meaningful NMR determination within a reasonable period of time.
# To understand the structural features associated with the fluorescence intensity changes, we studied the pH profiles of the fluorescence intensity in the absence (FIG. 18) and presence of fructose and glucose at a fixed concentration (50 mM). […] The fluorescence intensity at 513 nm increased very quickly when pH increased from 1.78 to 7.04 (thin lines in FIG. 18), and then decreased in the pH range of 7.04-10.54 (thick lines in FIG. 18).
# [9] = 0.1 M phosphate buffer pH 7.4, 1:1 complex assumed
# [10] = fructose 0.05 M, pH 7.4, λex 300 nm
# [11] = galactose 0.50 M, pH 7.4, λex 300 nm
# [12] = glucose 1.0 M, pH 7.4, λex 300 nm
# [13] = tagatose 0.05 M, pH 7.4, λex 300 nm
smiles,measurement,setting,value
"CN(C)c1cccc2c(B(O)O)cccc12 [Compound 7, 5-(Dimethylamino)-naphthalene-1-boronic acid]",melting point,,95 to 96 °C
same,change of the ratio I433/I513,[1]; 50 mM fructose versus no sugar,84 fold
same,Association constant (Ka) with fructose,[1]; [9],311 ± 4 M⁻¹
same,emission intensity ratio at 433 and 513 nm (I433/I513),"[1]; before addition of a sugar, pH 7.4",0.11
same,fluorescence intensity change ΔI/I0 at 433 nm,[1]; [10],36 (0.05)
same,fluorescence intensity change ΔI/I0 at 513 nm,[1]; [10],−0.61 (0.05)
same,fluorescence intensity decrease at 513 nm,"[1]; fructose 50 mM, phosphate buffer pH 7.4",0.55 fold
same,emission intensity ratio at 433 and 513 nm (I433/I513),[1]; upon addition of 0.1 mM fructose,0.23
same,stability,[2],not stable in neutral
same,quantum yield φF at 513 nm,"[3]; absence of a sugar, 0.1 M phosphate buffer pH 7.4",0.07
same,quantum yield φF at 433 nm,[3]; presence of 50 mM fructose,0.23
same,Association constant (Ka) with sorbitol,[4]; [9],337 ± 5 M⁻¹
same,fluorescence intensity change ΔI/I0 at 513 nm,"[4]; sorbitol 0.05 M, pH 7.4, λex 300 nm",−0.48 (0.05)
same,fluorescence intensity change ΔI/I0 at 433 nm,"[4]; sorbitol 0.20 M, pH 7.4, λex 300 nm",42 (0.20)
same,fluorescence intensity increase at 433 nm,"[4]; sorbitol 200 mM, physiological pH",42 fold
same,Association constant (Ka) with galactose,[5]; [9],23.0 ± 0.2 M⁻¹
same,fluorescence intensity change ΔI/I0 at 433 nm,[5]; [11],36 (0.50)
same,fluorescence intensity change ΔI/I0 at 513 nm,[5]; [11],−0.56 (0.50)
same,fluorescence intensity increase at 433 nm,"[5]; galactose, physiological pH",about 36 fold
same,Association constant (Ka) with glucose,[6]; [9],3.6 ± 0.1 M⁻¹
same,fluorescence intensity change ΔI/I0 at 433 nm,[6]; [12],23 (1.0)
same,fluorescence intensity change ΔI/I0 at 513 nm,[6]; [12],−0.54 (1.0)
same,maximum fluorescence intensity increase at 433 nm,"[6]; glucose 1 M, physiological pH",23 fold
same,Association constant (Ka) with tagatose,[7]; [9],229 ± 3 M⁻¹
same,fluorescence intensity change ΔI/I0 at 433 nm,[7]; [13],37 (0.05)
same,fluorescence intensity change ΔI/I0 at 513 nm,[7]; [13],−0.55 (0.05)
same,fluorescence intensity increase at 433 nm,"[7]; tagatose, physiological pH",about 36 fold
same,pKa,"[8]; 0.1 M aqueous phosphate buffer with 50 mM glucose, presence of glucose, intensity at 335 nm, read-out: first apparent pKa (aniline group)",5.1
same,pKa,"[8]; 0.1 M aqueous phosphate buffer, compound alone, intensity at 335 nm, read-out: first apparent pKa (aniline group)",5.1
same,pKa,"[8]; 0.1 M phosphate buffer, absence of sugar, 0.1 M phosphate buffer, read-out: apparent pKa assigned to the boronic acid moiety",~9
